Results on 5 compounds are retold here after ChEMBL document CHEMBL4422644, “Synthesis and evaluation of α-aminoacyl amides as antitubercular agents effective on drug resistant tuberculosis” (Eur J Med Chem, 2019).

Each structure is given as a SMILES string. In brackets after ≈: the same amount, converted by molar mass.

Holding throughout (assay type): functional
Test [1] relates to Mycobacterium tuberculosis. Nature of the test: Antitubercular activity against isoniazid/ethionamide resistant Mycobacterium tuberculosis isolate 1 after 7 days. The settings on record: isolate 1, 168 h.
Test [2] deals with Mycobacterium tuberculosis. Nature of the test: Antitubercular activity against isoniazid/ethionamide resistant Mycobacterium tuberculosis isolate 2 after 7 days. The settings on record: isolate 2, 168 h.
The subject of test [3] is Mycobacterium tuberculosis. Nature of the test: Antitubercular activity against multidrug-resistant Mycobacterium tuberculosis isolate 3 after 7 days. The settings on record: isolate 3, 168 h.
For test [4], the system named is Mycobacterium tuberculosis. Description: Antitubercular activity against multidrug-resistant Mycobacterium tuberculosis isolate 4 after 7 days. Conditions: isolate 4, 168 h.
Test [5] concerns Mycobacterium tuberculosis. Description: Antitubercular activity against isoniazid/rifampicin resistant Mycobacterium tuberculosis isolate 5 after 7 days. The settings on record: isolate 5, 168 h.
In test [6] the test system is Mycobacterium tuberculosis. Nature of the test: Antitubercular activity against multidrug-resistant Mycobacterium tuberculosis isolate 6 after 7 days. Conditions: isolate 6, 168 h.
For test [7], the system named is Mycobacterium tuberculosis. Nature of the test: Antitubercular activity against multidrug-resistant Mycobacterium tuberculosis isolate 7 after 7 days. The settings on record: isolate 7, 168 h.
Test [8] has as its system Mycobacterium tuberculosis. Nature of the test: Antitubercular activity against multidrug-resistant Mycobacterium tuberculosis isolate 8 after 7 days. The settings on record: isolate 8, 168 h.

Usually MIC stands for the smallest concentration in the dilution series that meets the test's criterion for growth inhibition. Low readings indicate greater potency, high ones weaker potency. On to `Cc1nc(C)c(C(=O)N(c2cccc(C)c2C)C(C(=O)NC2CCCCC2)c2cccnc2)s1` (stereo not drawn), for which the MIC worked out at 4 µg/mL (≈ 8.39 µM) in test [1]; 1 µg/mL (≈ 2.1 µM) in test [2]; 1 µg/mL (≈ 2.1 µM) in test [3]; 2 µg/mL (≈ 4.2 µM) in test [4]; 2 µg/mL (≈ 4.2 µM) in test [5]; 8 µg/mL (≈ 16.8 µM) in test [6]. Further, the MIC in test [7] stood at 2 µg/mL (≈ 4.2 µM); in test [8], 8 µg/mL (≈ 16.8 µM).

In the case of `CC[C@@H](CO)NCCN[C@@H](CC)CO` [ETHAMBUTOL], the MIC amounted to 2 µg/mL (≈ 9.79 µM) in test [1]; 4 µg/mL (≈ 19.6 µM) in test [2]; 4 µg/mL (≈ 19.6 µM) in test [3]; 8 µg/mL (≈ 39.2 µM) in test [4]; 4 µg/mL (≈ 19.6 µM) in test [6]; 8 µg/mL (≈ 39.2 µM) in test [7]. The compound further showed a minimum inhibitory concentration (MIC) in test [8] of more than 8 µg/mL.

Regarding `NNC(=O)c1ccncc1` [ISONIAZID], the MIC in test [1] is 5 µg/mL (≈ 36.5 µM); in test [2], more than 0.2 µg/mL; in test [3], more than 0.2 µg/mL; in test [4] it was more than 5 µg/mL; in test [5] it was 5 µg/mL (≈ 36.5 µM); in test [6] it was more than 5 µg/mL. The MIC in test [7] and in test [8] was 5 µg/mL (≈ 36.5 µM) in each case.

As to `NC[C@H]1O[C@H](O[C@H]2[C@H](O)[C@@H](O[C@H]3O[C@H](CO)[C@@H](O)[C@H](N)[C@H]3O)[C@H](N)C[C@@H]2N)[C@H](O)[C@@H](O)[C@@H]1O` [KANAMYCIN], the minimum inhibitory concentration (MIC) amounted to 16 µg/mL (≈ 33 µM) in test [1]; 32 µg/mL (≈ 66 µM) in test [2]; 32 µg/mL (≈ 66 µM) in test [3]; 8 µg/mL (≈ 16.5 µM) in test [4]; 8 µg/mL (≈ 16.5 µM) in test [6]; 8 µg/mL (≈ 16.5 µM) in test [7]. This compound yielded a minimal inhibitory concentration (MIC) in test [8] of 16 µg/mL (≈ 33 µM).

`CO[C@H]1/C=C/O[C@@]2(C)Oc3c(C)c(O)c4c(O)c(c(/C=N/N5CCN(C)CC5)c(O)c4c3C2=O)NC(=O)/C(C)=C\C=C\[C@H](C)[C@H](O)[C@@H](C)[C@@H](O)[C@@H](C)[C@H](OC(C)=O)[C@@H]1C` [RIFAMPIN]: the MIC is 32 µg/mL (≈ 38.9 µM) in test [1]; 4 µg/mL (≈ 4.86 µM) in test [2]; 64 µg/mL (≈ 77.8 µM) in test [3]; 32 µg/mL (≈ 38.9 µM) in test [4]; 128 µg/mL (≈ 156 µM) in test [5]; 128 µg/mL (≈ 156 µM) in test [6]. The MIC in test [7] and in test [8] was more than 128 µg/mL throughout.
